Assay [1] deals with MCF-10A. Nature of the assay: Antitumor activity against human spontaneously immortalized wild type MCF-10A cells assessed as cell numbers measured after 48 hrs. The format is functional, cell-based. Conditions: Homo sapiens, MCF-10A, 48 h; read-out: EC50.
Assay [2] has as its system MCF-10A. As to the kind of experiment: Antitumor activity against human spontaneously immortalized CDH-/- MCF10A cells assessed as cell numbers measured after 48 hrs. The format is functional, cell-based. Conditions: Homo sapiens, MCF-10A, 48 h; read-out: EC50.
The nature of assay [3]: Ratio of EC50 for antitumor activity against human spontaneously immortalized wild type MCF10A cells assessed as cell numbers measured after 48 hrs to antitumor activity against human spontaneously immortalized CDH-/- MCF10A cells assessed as cell numbers measured after 48 hrs. The format is functional, MCF-10A.
For assay [4], the system named is MCF-10A. As to the kind of experiment: Antitumor activity against human spontaneously immortalized CDH-/- MCF10A cells assessed as cell numbers at 3.13 uM measured after 48 hrs. The class given is functional.
Assay [5] concerns NCI-N87. Nature of the assay: Antitumor activity against human wild type NCI-N87 cells assessed as cell numbers measured after 48 hrs. The class given is functional, cell-based. Conditions: NCI-N87, 48 h.
Assay [6] deals with NCI-N87. As to the kind of experiment: Antitumor activity against human CDH-/- NCI-N87cells assessed as cell numbers measured after 48 hrs. Conditions: NCI-N87, 48 h. The class given is functional, cell-based.
Assay [7] in a line: Ratio of EC50 for antitumor activity against human NCI-N87 cells assessed as cell numbers measured after 48 hrs to antitumor activity against human CDH-/- NCI-N87 cells assessed as cell numbers measured after 48 hrs. The format is functional.
The subject of assay [8] is MCF-10A. As to the kind of experiment: Induction of apoptosis in human spontaneously immortalized wild type MCF10A cells assessed as apoptotic cells at 12.5 uM measured after 48 hrs by flow cytometry-based annexin-V-FITC/propidium iodide (PI) apoptosis assay. The format is functional. For orientation: In flow cytometry, cells or beads pass a laser one at a time.
Assay [9] relates to MCF-10A. Nature of the assay: Induction of apoptosis in human spontaneously immortalized CDH-/- MCF10A cells assessed as apoptotic cells at 12.5 uM measured after 48 hrs by flow cytometry-based annexin-V-FITC/propidium iodide (PI) apoptosis assay. The format is functional.
In assay [10] the test system is MCF-10A. As to the kind of experiment: Induction apoptosis in human spontaneously immortalized wild type MCF10A cells assessed as viable cells at 6.25 uM measured after 48 hrs by flow cytometry-based annexin-V-FITC/propidium iodide apoptosis assay (reference value: 94.4%). The class given is functional. Conditions: read-out: Activity.
Assay [11] deals with MCF-10A. Nature of the assay: Induction apoptosis in human spontaneously immortalized wild type MCF10A cells assessed as early apoptotic cells at 6.25 uM measured after 48 hrs by flow cytometry-based annexin-V-FITC/propidium iodide (PI) apoptosis assay (reference value: 1.2%). The class given is functional.
The test system of assay [12] is MCF-10A. As to the kind of experiment: Induction apoptosis in human spontaneously immortalized wild type MCF10A cells assessed as late apoptotic cells at 6.25 uM measured after 48 hrs by flow cytometry-based annexin-V-FITC/propidium iodide (PI) apoptosis assay (reference value: 4.2%). The format is functional.
Assay [13] concerns MCF-10A. Nature of the assay: Induction apoptosis in human CDH-/- MCF10A cells assessed as viable cells at 6.25 uM measured after 48 hrs by flow cytometry-based annexin-V-FITC/propidium iodide (PI) apoptosis assay (reference value: 93.6%). The class given is functional. Particulars: read-out: Activity.
Assay [14] relates to MCF-10A. Nature of the assay: Induction apoptosis in human CDH-/- MCF10A cells assessed as early apoptotic cells at 6.25 uM measured after 48 hrs by flow cytometry-based annexin-V-FITC/propidium iodide (PI) apoptosis assay (reference value: 2.9%). The class given is functional.
Assay [15] relates to MCF-10A. As to the kind of experiment: Induction apoptosis in human CDH-/- MCF10A cells assessed as late apoptotic cells at 6.25 uM measured after 48 hrs by flow cytometry-based annexin-V-FITC/propidium iodide (PI) apoptosis assay (reference value: 3.2%). The format is functional.
Assay [16] concerns MCF-10A. As to the kind of experiment: Induction apoptosis in human spontaneously immortalized wild type MCF10A cells assessed as necrotic cells at 3.25 uM measured after 48 hrs by flow cytometry-based annexin-V-FITC/propidium iodide (PI) apoptosis assay. The format is functional.
The subject of assay [17] is MCF-10A. As to the kind of experiment: Induction apoptosis in human spontaneously immortalized wild type MCF10A cells assessed as necrotic cells at 6.25 uM measured after 48 hrs by flow cytometry-based annexin-V-FITC/propidium iodide (PI) apoptosis assay. The format is functional.
Assay [18] in a line: Anticancer activity against mouse mammary organoids assessed as reduction in growth by measuring TdTom CdhI-/- at 12.5 uM incubated for 48 hrs. The class given is functional, Mammary gland. Further details: scale not given: the % may be the effect or the level left.
A short description of assay [19]: Anticancer activity against mouse gastric organoids assessed as reduction in growth by measuring TdTom CdhI-/- at 1.56 uM incubated for 48 hrs. The format is functional, Gastric gland. Further details: scale not given: the % may be the effect or the level left.
The subject of assay [20] is MCF-10A. Nature of the assay: Binding affinity to TCOF1 in human spontaneously immortalized CDH-/- MCF10A cell lysates assessed as change in melting temperature at 3.125 uM for 3 hrs by thermal proteome profiling assay.
Assay [21] deals with SUMO-conjugating enzyme UBC9 (Homo sapiens) (UniProt P63279). As to the kind of experiment: Binding affinity to SUMO-conjugating UBC9 in human spontaneously immortalized CDH-/- MCF10A cell lysates assessed as change in melting temperature at 3.125 uM for 3 hrs by thermal proteome profiling assay. Conditions: MCF-10A.
The target in assay [22] is Actin-related protein 2/3 complex subunit 5 (Homo sapiens) (UniProt O15511). As to the kind of experiment: Binding affinity to ARPC5 in human spontaneously immortalized CDH-/- MCF10A cell lysates assessed as change in melting temperature at 3.125 uM for 3 hrs by thermal proteome profiling assay. Conditions: MCF-10A.
The species named for the next assay is Homo sapiens. Nature of the assay: Inhibition of SUMOylation of GST-tagged RanGAP1 (unknown origin) protein using SUMO1 and UBC9 up to 3.13 uM by Western blotting analysis. Background: In western blotting, separated proteins are transferred to a membrane and probed.

Calls of active or inactive are those of the source. The rule behind the calls is not given here. Some results are limits rather than exact numbers.

Sequence of SUMO-conjugating enzyme UBC9 (Homo sapiens) (P63279 whole entry): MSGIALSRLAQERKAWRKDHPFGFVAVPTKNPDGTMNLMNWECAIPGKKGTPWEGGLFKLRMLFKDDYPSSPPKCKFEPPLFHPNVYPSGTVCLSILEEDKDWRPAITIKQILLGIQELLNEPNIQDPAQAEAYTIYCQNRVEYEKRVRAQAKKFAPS

Regarding `Cc1cc(NCc2ccc(F)cc2)c2cc(OCCCN3CCCC3)ccc2n1`, the EC50 (usually the midpoint of the concentration-response curve) with MCF-10A [1] was 3.2 µM; with MCF-10A [2], 2 µM; in the assay on NCI-N87 [5], 8.5 µM; in the assay on NCI-N87 [6] it was 16.4 µM. The “Ratio EC50” value was found to be 1.6 in [3] and 1.9 in assay [7]. The inhibition – broadly, how much of the control response was suppressed – at 3.13 µM in the assay with MCF-10A [4] was found to be 70%. Further, the Activity in the assay on MCF-10A [8] is listed as >90%; with MCF-10A [9] it was >90%; in the assay on MCF-10A [11], 23.5%; in the assay on MCF-10A [12], 11.2%; in the assay on MCF-10A [14] it was 24.7%; in the assay with MCF-10A [15], 48%. Also, the Activity in the assay with MCF-10A [16] is on record as 5%; in the assay with MCF-10A [17], 32%; in assay [18], 21.3%; in [19], 40%. Further, the viability at 6.25 µM was 64.9% in the assay on MCF-10A [10] and 26.7% in the assay with MCF-10A [13]. The ΔTm (as a rule, the change in melting temperature against a reference sample) came out at 8.32 °C in the assay with MCF-10A [20], 5.71 °C in assay [21] and 3.72 °C in [22]. In addition, the inhibition entry in the assay filed under Homo sapiens was “Active”.

The record behind these values is ChEMBL document CHEMBL5055686, “Discovery of AL-GDa62 as a Potential Synthetic Lethal Lead for the Treatment of Gastric Cancer” (J Med Chem, 2021).
